According to US8852554B2, “Radiolabelled PDE10 ligands” (Janssen Pharmaceutica NV, priority 2009, dated 2014):
Several values for one entry are separate records, joined by “and”; a condition that tells them apart may be missing. Equal values may be shown once.

Experiments:
[1] = Biodistribution studies of the 18F tracers in rats; format: in vivo, male Wistar rats; conditions: rat, i.v.
Procedure: Biodistribution studies were carried out in healthy male Wister rats (body weight 200-500 g) at 2 min, 30 min and 60 min post injection (p.i.) (n=3/time point). For |^18F|B-4 only the 2 min and 30 min time points were studied. […] Blood and major organs were collected in tared tubes and weighed. The radioactivity in blood, organs and other body parts was measured using an automated gamma counter. The distribution of radioactivity in different parts of the body at different time points p.i. of the tracer was calculated and expressed as percentage of injected dose (% ID), and as percentage of injected dose per gram tissue (% ID/g) for the selected organs. % ID is calculated as cpm in organ/total cpm recovered. For calculation of total radioactivity in blood, blood mass was assumed to be 7% of the body mass.

PDE10A = target: T1, PDE10A (Rattus norvegicus, UniProt Q9QYJ6); test: MicroPET imaging studies; format: in vivo, male Wistar rats
T1 construct: from tissue; host or cells: brain (striatum) of living male Wistar rats, in vivo microPET
T1 sequence (Q9QYJ6 1-794): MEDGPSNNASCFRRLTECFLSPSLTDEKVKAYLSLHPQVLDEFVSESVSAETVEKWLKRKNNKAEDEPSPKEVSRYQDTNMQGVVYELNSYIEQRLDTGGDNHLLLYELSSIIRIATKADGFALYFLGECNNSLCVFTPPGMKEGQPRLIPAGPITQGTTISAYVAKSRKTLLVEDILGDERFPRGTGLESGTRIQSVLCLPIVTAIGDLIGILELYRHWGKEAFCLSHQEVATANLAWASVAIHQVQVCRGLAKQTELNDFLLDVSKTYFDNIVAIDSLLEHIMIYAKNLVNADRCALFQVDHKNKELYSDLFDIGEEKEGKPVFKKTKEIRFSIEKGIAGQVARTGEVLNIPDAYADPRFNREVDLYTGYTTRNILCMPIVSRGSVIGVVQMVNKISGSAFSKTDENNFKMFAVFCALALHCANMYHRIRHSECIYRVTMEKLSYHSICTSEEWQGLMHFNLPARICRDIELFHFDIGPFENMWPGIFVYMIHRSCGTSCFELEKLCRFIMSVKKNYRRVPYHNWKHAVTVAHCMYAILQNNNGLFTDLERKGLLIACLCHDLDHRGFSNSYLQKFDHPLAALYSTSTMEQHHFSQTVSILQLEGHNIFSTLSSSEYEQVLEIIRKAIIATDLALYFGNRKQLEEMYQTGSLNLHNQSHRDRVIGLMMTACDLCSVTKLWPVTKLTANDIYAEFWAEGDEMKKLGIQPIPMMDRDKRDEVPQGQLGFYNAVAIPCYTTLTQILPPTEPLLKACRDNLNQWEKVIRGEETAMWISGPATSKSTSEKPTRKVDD
Procedure: Imaging experiments were performed on a Focus™ 220 microPET scanner (Concorde Microsystems, Knoxville, Tenn., USA) using male Wistar rats with body weight varying between 300 and 600 g. […] Dynamic scans of 120 min were acquired in list mode. After reconstruction of the images, they were semi-automatically co-registered with a [^11C]raclopride template of the rat brain, and volumes of interest (VOIs) were generated for different anatomical brain structures (striatum, cerebral cortex and cerebellum) from which time-activity curves (TAC) were constructed for each individual image, using PMOD software (PMOD Technologies Ltd.). Normalization for body weight of the animal and injected dose was done. The radioactivity concentration in the different brain regions was expressed as SUV (standardized uptake value) as a function of time in seconds post injection of the radiotracer. The parametric binding potential (BP) values were calculated for all acquired images by using a simplified reference tissue model where the TAC of the cerebellum was used as input TAC for non-specific binding, using the same software (PMOD).
The radioactivity concentration in the different brain regions was expressed as SUV value as a function of time p.i. of the radiotracer by normalization for body weight of the animal and injected dose.

total initial brain uptake ([1]; 2 min p.i.): 0.40 % ID | % ID in the urinary system ([1]; 30 min p.i.): ~2.5 % ID | % ID, Blood ([1]; 30 min p.i.): 3.35 ± 0.5 % ID | % ID, Carcass ([1]; 30 min p.i.): 26.15 ± 1.2 % ID | % ID, Cerebellum ([1]; 30 min p.i.): 0.028 ± 0.002 % ID | % ID, Cerebrum total ([1]; 30 min p.i.): 0.208 ± 0.027 % ID | % ID, Cortex ([1]; 30 min p.i.): 0.022 ± 0.002 % ID | % ID, Heart ([1]; 30 min p.i.): 0.28 ± 0.1 % ID | % ID, Hippocampus ([1]; 30 min p.i.): 0.004 ± 0.000 % ID | % ID, Intestines ([1]; 30 min p.i.): 12 % ID and 11.98 ± 1.9 % ID | % ID, Kidneys ([1]; 30 min p.i.): 1.71 ± 0.3 % ID | % ID, Liver ([1]; 30 min p.i.): 47 % ID and 47.40 ± 3.5 % ID | % ID, Lungs ([1]; 30 min p.i.): 0.35 ± 0.1 % ID | % ID, Rest of cerebrum ([1]; 30 min p.i.): 0.162 ± 0.030 % ID | % ID, Spleen + Pancreas ([1]; 30 min p.i.): 0.56 ± 0.1 % ID | % ID, Stomach ([1]; 30 min p.i.): 8 % ID and 8.08 ± 3.7 % ID | % ID, Striatum ([1]; 30 min p.i.): 0.019 % ID and 0.019 ± 0.003 % ID | % ID, Urine ([1]; 30 min p.i.): 0.75 ± 0.1 % ID | % ID/g, Blood ([1]; 30 min p.i.): 0.18 ± 0.03 % ID/g | % ID/g, Cerebellum ([1]; 30 min p.i.): 0.104 ± 0.005 % ID/g | % ID/g, Cerebrum + Cerebellum ([1]; 30 min p.i.): 0.151 ± 0.016 % ID/g | % ID/g, Cerebrum total ([1]; 30 min p.i.): 0.157 ± 0.019 % ID/g | % ID/g, Cortex ([1]; 30 min p.i.): 0.145 ± 0.026 % ID/g | % ID/g, Heart ([1]; 30 min p.i.): 0.24 ± 0.04 % ID/g | % ID/g, Hippocampus ([1]; 30 min p.i.): 0.108 ± 0.013 % ID/g | % ID/g, Kidneys ([1]; 30 min p.i.): 0.68 ± 0.12 % ID/g | % ID/g, Liver ([1]; 30 min p.i.): 3.85 ± 0.04 % ID/g | % ID/g, Lungs ([1]; 30 min p.i.): 0.24 ± 0.02 % ID/g | % ID/g, Rest of cerebrum ([1]; 30 min p.i.): 0.149 ± 0.019 % ID/g | % ID/g, Spleen + Pancreas ([1]; 30 min p.i.): 0.40 ± 0.02 % ID/g | % ID/g, Striatum ([1]; 30 min p.i.): 0.458 ± 0.041 % ID/g | peak (maximum) striatum-to-cerebellum ratio (PDE10A; baseline microPET): 4.4 | time of peak striatum-to-cerebellum ratio (PDE10A; baseline microPET): about 6 min p.i. | time until which peak striatum-to-cerebellum ratio remained (PDE10A; baseline microPET): about 13 min p.i. | BP (binding potential) at baseline (PDE10A; simplified reference tissue model, cerebellum as reference): 2.5
SMILES: COc1ccc(COc2ccc(-c3nn(CC[18F])cc3-c3ccncc3)cc2)nc1 [[^18F]B-4]
% ID/g normalized for body weight, Blood ([1]; 30 min p.i.): 0.05 ± 0.01 % ID/g × body wt. in kg | % ID/g normalized for body weight, Cerebellum ([1]; 30 min p.i.): 0.029 ± 0.00 % ID/g × body wt. in kg | % ID/g normalized for body weight, Cerebrum + Cerebellum ([1]; 30 min p.i.): 0.04 ± 0.00 % ID/g × body wt. in kg | % ID/g normalized for body weight, Cerebrum total ([1]; 30 min p.i.): 0.043 ± 0.00 % ID/g × body wt. in kg | % ID/g normalized for body weight, Cortex ([1]; 30 min p.i.): 0.040 ± 0.01 % ID/g × body wt. in kg | % ID/g normalized for body weight, Heart ([1]; 30 min p.i.): 0.07 ± 0.01 % ID/g × body wt. in kg | % ID/g normalized for body weight, Hippocampus ([1]; 30 min p.i.): 0.029 ± 0.00 % ID/g × body wt. in kg | % ID/g normalized for body weight, Kidneys ([1]; 30 min p.i.): 0.19 ± 0.03 % ID/g × body wt. in kg | % ID/g normalized for body weight, Liver ([1]; 30 min p.i.): 1.05 ± 0.03 % ID/g × body wt. in kg | % ID/g normalized for body weight, Lungs ([1]; 30 min p.i.): 0.07 ± 0.00 % ID/g × body wt. in kg | % ID/g normalized for body weight, Rest of cerebrum ([1]; 30 min p.i.): 0.041 ± 0.00 % ID/g × body wt. in kg | % ID/g normalized for body weight, Spleen + Pancreas ([1]; 30 min p.i.): 0.11 ± 0.01 % ID/g × body wt. in kg | % ID/g normalized for body weight, Striatum ([1]; 30 min p.i.): 0.125 % ID/g × body wt. in kg and 0.125 ± 0.01 % ID/g × body wt. in kg | radioactivity concentration, the other brain regions (than striatum) ([1]; 30 min p.i.): ≤ 0.040 % ID/g corrected for body weight | striatum/blood ratio (from % ID/g normalized for body weight) ([1]; 30 min p.i.): 2.61 | striatum/cerebellum ratio (from % ID/g normalized for body weight) ([1]; 30 min p.i.): 4.38 | striatum/hippocampus ratio (from % ID/g normalized for body weight) ([1]; 30 min p.i.): 4.25
